Data reported in paper PMC5384453, “A multi-functional PEGylated gold(III) compound: potent anti-cancer properties and self-assembly into nanostructures for drug co-delivery” (Chemical Science, 2016).

Experiments:
NCM460 = assay: In vitro cytotoxicity, MTT assay; type: cell-based, human; conditions: 72 h incubation
Description: (§1) In vitro cytotoxicity assays. HeLa, NCI-H460, HCT116, A2780, A2780cis and
(§2) cells), respectively, were seeded in 96-well plates for 24 h. The cells were then treated with a serial concentration of gold(III) complexes and incubated at 37 °C under a 5% CO2 atmosphere for 72 h. For nanostructures of 1, 2 and NC1, they were dissolved in
(§3) cisplatin were dissolved in culture medium-DMSO solution mixture (99:1, v/v).
(§4) After incubation for 72 h, MTT in PBS solution (5 mg/mL, 10 μL) was added to each well. The plates were incubated at 37 °C under a 5% CO2 atmosphere for another 4 h, and the cells were lysed by the addition of SDS solution (10%, w/w) with 0.01 M HCl (100 μL). After incubation in dark at 37 °C overnight, the cell viability after treatment was determined by a microtitre plate reader monitoring at the absorbance at 590 nm,

A2780cis = assay: In vitro cytotoxicity, MTT assay; type: cell-based, human
Description: as §1, §2, §3, §4

HCT116 cells = assay: Hydrolysis in live cells, UPLC-QTOF-MS of cell lysates; type: in vitro ADME, human; conditions: 2 μM, 24 h
Description: Hydrolysis of the gold(III) complexes in live cells was examined by ultra-performance liquid chromatography coupled quadrupole-time-of-flight mass spectrometry (UPLC-QTOF-MS). Colon cancer cells (HCT116) were treated with 1, 2 and 3 (2 μM) for 24 h, harvested and lysed in an acetonitrile–water solution mixture (3 : 1, v/v) prior to UPLC-QTOF-MS analysis. […] Therefore, the peak is attributable to the major metabolite of 1 formed in HCT116 cells. […] This should be attributable to the higher stability of the amide bond versus the ester bond in vitro. […]
which reflected the amount of blue formazan formed. IC50 values were then determined by CompuSyn S6 from three independent measurements.
Study on the release of hydrolyzed product from 1 and 2 in aqueous buffer solutions by ICP-MS. The nanostructures of gold(III) complex was dissolved in PBS solution (pH 7.4; 1 mg/mL) or sodium acetate buffer solution (pH 4.0; 1 mg/mL) and was dialyzed against 1 L of the buffer solution at 37 °C using semipermeable minidialysis tubes (molecular weight cut-off = 1,000 Da; GE Healthcare). At a predetermined time, an aliquot of solution was removed and dissolved in HNO3/HCl solution mixture (9:1, v/v; volume of aliquot: volume of acid mixture = 1:3). The solution mixture was heated at 65 °C with shaking overnight, and the gold content was determined by ICP-MS from three independent aliquots.
Study on the hydrolysis of 1 and 2 in aqueous buffer solutions by 1H NMR. […]
The flow rate was 0.4 mL/min and the injection volume was 2 µL. The UPLC-QTOF-MS chromatograms of 1, 3, 4 and solvent control in acetonitrile were also recorded for the interpretation of UPLC-QTOF-MS chromatograms of the cell lysate. […]
Au1a (2 µM; with 1 vol% DMSO). […] An aliquot of the cell suspension was subjected to Bio-rad protein assay with a microtitre plate reader at the absorbance at 595 nm, using bovine serum albumin as the protein standard. […] The solution mixture was heated at 65 °C with shaking overnight, and the gold content was determined by ICP-MS. […]

A2780 = assay: In vitro cytotoxicity, MTT assay; type: cell-based, human
Description: as §1, §2, §3, §4

CCD-19Lu = assay: In vitro cytotoxicity, MTT assay; type: cell-based, human; conditions: 72 h incubation
Description: as §1, §2, §3, §4

HCT116 = assay: In vitro cytotoxicity, MTT assay; type: cell-based, human
Description: as §1, §2, §3, §4

MIHA = assay: In vitro cytotoxicity, MTT assay; type: cell-based; conditions: MTT assay, 72 h incubation, read-out: IC50
Description: as §1, §2, §3, §4

NCI-H460 = assay: In vitro cytotoxicity, MTT assay; type: cell-based, human
Description: as §1, §2, §3, §4

A2780adr = assay: In vitro cytotoxicity, MTT assay; type: cell-based, human
Description: as §1, §2, §3, §4

HeLa = assay: In vitro cytotoxicity, MTT assay; type: cell-based, human
Description: as §1, §2, §3, §4

For “[Au(TPP–CONH–PEG5000–OCH3)]Cl [Compound 2]”, the IC50 (NCM460) was 71 ± 6.42 µM, the IC50 (A2780cis; A2780cis, MTT assay, 72 h incubation) was 47.2 ± 8.62 µM and the “Resistance found in A2780cis” value (A2780cis; IC50 of A2780cis cells / IC50 of A2780 cells) was 3.57. The “Toxicity toward cancer cells compared to that toward MIHA cells, A2780cis” value (A2780cis; IC50 of MIHA cells / IC50 of A2780cis) was 2.4, the “Toxicity toward cancer cells compared to that toward NCM460 cells, A2780cis” value (A2780cis; IC50 of NCM460 cells / IC50 of A2780cis) was 1.5 and the “hydrolysis / release of [Au(TPP–COOH)]+ in cells” value (HCT116 cells) was “no release of [Au(TPP–COOH)]^+ can be found”. The IC50 (A2780; A2780, MTT assay, 72 h incubation) was 13.4 ± 0.18 µM, the “Toxicity toward cancer cells compared to that toward MIHA cells, A2780” value (A2780; IC50 of MIHA cells / IC50 of A2780) was 8.6 and the “Toxicity toward cancer cells compared to that toward NCM460 cells, A2780” value (A2780; IC50 of NCM460 cells / IC50 of A2780) was 5.3. For the same substance, the IC50 (CCD-19Lu) was > 100 µM, the IC50 (HCT116; HCT116, MTT assay, 72 h incubation) was 8.24 ± 0.22 µM and the “Toxicity toward cancer cells compared to that toward MIHA cells, HCT-116” value (HCT116; IC50 of MIHA cells / IC50 of HCT-116) was 14.0. For the same substance, the “Toxicity toward cancer cells compared to that toward NCM460 cells, HCT-116” value (HCT116; IC50 of NCM460 cells / IC50 of HCT-116) was 8.6, the IC50 (MIHA) was 115 ± 17.1 µM and the “Toxicity toward cancer cells compared to that toward MIHA cells, NCI-H460” value (NCI-H460; IC50 of MIHA cells / IC50 of NCI-H460) was 4.7. For the same substance, the “Toxicity toward cancer cells compared to that toward NCM460 cells, NCI-H460” value (NCI-H460; IC50 of NCM460 cells / IC50 of NCI-H460) was 2.9, the IC50 (NCI-H460; NCI-H460, MTT assay, 72 h incubation) was 24.7 ± 4.62 µM and the IC50 (A2780adr; A2780adr, MTT assay, 72 h incubation, read-out: IC50) was > 120 µM. The “Resistance found in A2780adr” value (A2780adr; IC50 of A2780adr cells / IC50 of A2780 cells) was > 9.09, the “Toxicity toward cancer cells compared to that toward MIHA cells, A2780adr” value (A2780adr; IC50 of MIHA cells / IC50 of A2780adr) was < 1.0 and the “Toxicity toward cancer cells compared to that toward NCM460 cells, A2780adr” value (A2780adr; IC50 of NCM460 cells / IC50 of A2780adr) was < 0.6. The IC50 (HeLa; HeLa, MTT assay, 72 h incubation, read-out: IC50) was 46.5 ± 4.4 µM, the “Toxicity toward cancer cells compared to that toward MIHA cells, HeLa” value (HeLa; IC50 of MIHA cells / IC50 of HeLa) was 2.5 and the “Toxicity toward cancer cells compared to that toward NCM460 cells, HeLa” value (HeLa; IC50 of NCM460 cells / IC50 of HeLa) was 1.5.
